Reference: ChEMBL document CHEMBL4007384, “Synthesis and optimization of furano[3,2-d]pyrimidines as selective spleen tyrosine kinase (Syk) inhibitors” (Bioorg Med Chem Lett, 2016)
pIC50: −log10 of the molar value.

Assays:
[1] = molecular target: T1, Activin receptor type-1 (Homo sapiens, UniProt Q04771); experiment: Inhibition of ACVR1 (unknown origin) after 60 mins by TR-FRET assay
T1 sequence (Q04771 whole entry): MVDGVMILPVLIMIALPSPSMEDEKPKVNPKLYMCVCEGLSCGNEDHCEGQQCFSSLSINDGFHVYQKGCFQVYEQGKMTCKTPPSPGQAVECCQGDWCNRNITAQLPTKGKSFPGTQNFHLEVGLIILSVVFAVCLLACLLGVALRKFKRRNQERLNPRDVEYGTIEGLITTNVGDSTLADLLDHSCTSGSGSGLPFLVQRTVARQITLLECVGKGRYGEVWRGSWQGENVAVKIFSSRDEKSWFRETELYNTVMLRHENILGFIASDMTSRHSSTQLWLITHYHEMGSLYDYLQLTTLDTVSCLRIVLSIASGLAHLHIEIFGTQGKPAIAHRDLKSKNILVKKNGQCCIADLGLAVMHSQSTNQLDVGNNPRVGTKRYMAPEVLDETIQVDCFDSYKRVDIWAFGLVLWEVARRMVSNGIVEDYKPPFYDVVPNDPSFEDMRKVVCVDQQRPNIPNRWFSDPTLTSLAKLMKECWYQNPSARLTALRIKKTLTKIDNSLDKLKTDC

[2] = molecular target: AMP-activated protein kinase, AMPK; experiment: Inhibition of AMPK (unknown origin) after 60 mins by TR-FRET assay; set-up: species or system Homo sapiens
[3] = molecular target: Tyrosine-protein kinase BTK (Homo sapiens, UniProt Q06187); experiment: Inhibition of BTK (unknown origin) after 60 mins by TR-FRET assay
Sequence of Tyrosine-protein kinase BTK (Q06187 whole entry): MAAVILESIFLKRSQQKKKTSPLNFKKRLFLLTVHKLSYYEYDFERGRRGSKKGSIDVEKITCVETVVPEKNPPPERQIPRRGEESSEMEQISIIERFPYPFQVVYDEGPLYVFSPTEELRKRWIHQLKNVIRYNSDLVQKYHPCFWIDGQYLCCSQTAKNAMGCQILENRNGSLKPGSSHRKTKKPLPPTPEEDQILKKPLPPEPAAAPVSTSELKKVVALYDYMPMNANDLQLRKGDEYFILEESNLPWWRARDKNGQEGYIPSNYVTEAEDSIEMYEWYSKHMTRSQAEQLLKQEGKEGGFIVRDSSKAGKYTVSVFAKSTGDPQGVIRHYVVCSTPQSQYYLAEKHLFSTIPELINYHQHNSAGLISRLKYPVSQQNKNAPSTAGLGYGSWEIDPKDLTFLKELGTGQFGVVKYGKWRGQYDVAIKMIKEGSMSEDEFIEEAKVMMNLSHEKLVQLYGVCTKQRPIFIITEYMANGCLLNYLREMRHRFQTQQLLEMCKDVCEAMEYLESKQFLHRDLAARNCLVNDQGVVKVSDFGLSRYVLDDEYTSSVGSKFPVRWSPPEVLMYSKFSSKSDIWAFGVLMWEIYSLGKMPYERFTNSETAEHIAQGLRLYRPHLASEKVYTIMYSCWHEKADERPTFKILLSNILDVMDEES

[4] = molecular target: Cyclin-dependent kinase 7 (Homo sapiens, UniProt P50613); experiment: Inhibition of CDK7 (unknown origin) after 60 mins by TR-FRET assay
[5] = molecular target: Casein kinase I isoform alpha (Homo sapiens, UniProt P48729); experiment: Inhibition of CK1alpha1 (unknown origin) after 60 mins by TR-FRET assay
Sequence of Casein kinase I isoform alpha (P48729 whole entry, canonical isoform): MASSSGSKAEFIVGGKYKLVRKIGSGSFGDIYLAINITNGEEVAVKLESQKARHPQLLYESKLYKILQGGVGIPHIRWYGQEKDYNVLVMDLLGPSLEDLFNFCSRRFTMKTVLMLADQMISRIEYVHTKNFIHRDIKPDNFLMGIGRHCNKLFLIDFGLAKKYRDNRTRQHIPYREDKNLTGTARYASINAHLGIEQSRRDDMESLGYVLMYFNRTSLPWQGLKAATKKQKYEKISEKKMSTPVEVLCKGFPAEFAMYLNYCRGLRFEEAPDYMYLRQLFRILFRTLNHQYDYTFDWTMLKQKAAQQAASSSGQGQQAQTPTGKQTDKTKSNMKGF

[6] = molecular target: Dual specificity protein kinase CLK2 (Homo sapiens, UniProt P49760); experiment: Inhibition of CLK2 (unknown origin) after 60 mins by TR-FRET assay
[7] = molecular target: Dual specificity tyrosine-phosphorylation-regulated kinase 1A (Homo sapiens, UniProt Q13627); experiment: Inhibition of DYRK1A (unknown origin) after 60 mins by TR-FRET assay
[8] = molecular target: G protein-coupled receptor kinase 5 (Homo sapiens, UniProt P34947); experiment: Inhibition of GRK5 (unknown origin) after 60 mins by TR-FRET assay
[9] = molecular target: Glycogen synthase kinase-3 beta (Homo sapiens, UniProt P49841); experiment: Inhibition of GSK3B (unknown origin) after 60 mins by TR-FRET assay
[10] = molecular target: Tyrosine-protein kinase JAK2 (Homo sapiens, UniProt O60674); experiment: Inhibition of JAK2 (unknown origin) after 60 mins by TR-FRET assay
Sequence of Tyrosine-protein kinase JAK2 (O60674 whole entry, the tested form may be a part): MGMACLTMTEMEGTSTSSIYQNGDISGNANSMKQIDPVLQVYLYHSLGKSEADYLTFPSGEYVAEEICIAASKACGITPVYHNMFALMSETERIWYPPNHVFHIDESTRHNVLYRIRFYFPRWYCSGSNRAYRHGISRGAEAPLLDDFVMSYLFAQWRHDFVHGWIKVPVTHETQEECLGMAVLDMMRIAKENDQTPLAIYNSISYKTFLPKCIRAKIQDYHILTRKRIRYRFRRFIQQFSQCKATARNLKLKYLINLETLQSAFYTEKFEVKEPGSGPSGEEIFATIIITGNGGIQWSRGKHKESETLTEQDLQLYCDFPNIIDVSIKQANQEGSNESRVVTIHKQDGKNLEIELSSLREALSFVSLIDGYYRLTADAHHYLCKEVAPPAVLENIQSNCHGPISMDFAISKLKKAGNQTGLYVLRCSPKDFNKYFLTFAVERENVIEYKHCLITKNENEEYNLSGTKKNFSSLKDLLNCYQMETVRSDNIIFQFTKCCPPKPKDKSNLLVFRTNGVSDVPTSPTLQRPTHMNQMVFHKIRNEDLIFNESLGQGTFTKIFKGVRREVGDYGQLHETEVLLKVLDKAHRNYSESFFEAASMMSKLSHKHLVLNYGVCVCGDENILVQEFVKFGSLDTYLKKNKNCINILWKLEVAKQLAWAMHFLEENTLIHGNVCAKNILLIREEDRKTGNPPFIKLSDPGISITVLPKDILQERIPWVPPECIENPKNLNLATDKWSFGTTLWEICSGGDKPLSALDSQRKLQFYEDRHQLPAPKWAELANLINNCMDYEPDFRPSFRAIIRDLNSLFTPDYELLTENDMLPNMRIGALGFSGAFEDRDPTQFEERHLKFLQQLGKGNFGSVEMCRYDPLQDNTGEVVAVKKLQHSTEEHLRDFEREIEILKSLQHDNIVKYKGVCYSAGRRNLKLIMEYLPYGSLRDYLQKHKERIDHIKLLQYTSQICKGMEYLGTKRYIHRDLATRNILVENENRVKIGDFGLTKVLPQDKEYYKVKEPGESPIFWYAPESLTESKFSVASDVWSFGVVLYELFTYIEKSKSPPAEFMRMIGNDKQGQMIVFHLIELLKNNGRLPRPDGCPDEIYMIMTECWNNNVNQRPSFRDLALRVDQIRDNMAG

[11] = molecular target: Serine/threonine-protein kinase PAK 4 (Homo sapiens, UniProt O96013); experiment: Inhibition of PAK4 kinase domain (unknown origin) after 60 mins by TR-FRET assay
Sequence of Serine/threonine-protein kinase PAK 4 (O96013 whole entry, the tested form may be a part): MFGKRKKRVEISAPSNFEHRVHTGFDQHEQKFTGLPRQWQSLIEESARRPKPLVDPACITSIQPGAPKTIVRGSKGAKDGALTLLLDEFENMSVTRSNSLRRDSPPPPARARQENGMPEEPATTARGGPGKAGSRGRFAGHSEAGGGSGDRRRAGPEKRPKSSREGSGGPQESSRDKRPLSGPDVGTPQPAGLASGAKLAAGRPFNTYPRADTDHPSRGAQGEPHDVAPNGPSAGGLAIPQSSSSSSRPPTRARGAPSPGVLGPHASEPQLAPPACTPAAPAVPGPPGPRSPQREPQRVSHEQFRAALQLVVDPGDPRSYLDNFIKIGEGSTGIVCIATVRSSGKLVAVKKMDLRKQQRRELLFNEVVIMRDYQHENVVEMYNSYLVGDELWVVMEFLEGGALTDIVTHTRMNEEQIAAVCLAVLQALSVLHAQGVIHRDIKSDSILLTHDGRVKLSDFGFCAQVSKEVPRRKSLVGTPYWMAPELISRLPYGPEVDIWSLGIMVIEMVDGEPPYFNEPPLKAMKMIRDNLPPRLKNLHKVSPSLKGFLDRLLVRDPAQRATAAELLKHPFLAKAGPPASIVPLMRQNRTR

[12] = molecular target: Platelet-derived growth factor receptor alpha (Homo sapiens, UniProt P16234); experiment: Inhibition of PDGFRA (unknown origin) after 60 mins by TR-FRET assay
[13] = Inhibition of PKA (unknown origin) after 60 mins by TR-FRET assay
[14] = molecular target: Rho-associated protein kinase 1 (Homo sapiens, UniProt Q13464); experiment: Inhibition of ROCK1(unknown origin) after 60 mins by TR-FRET assay
[15] = molecular target: T2, Serine/threonine-protein kinase TAO2 (Homo sapiens, UniProt Q9UL54); experiment: Inhibition of TAOK2 (unknown origin) after 60 mins by TR-FRET assay
T2 sequence (Q9UL54 whole entry): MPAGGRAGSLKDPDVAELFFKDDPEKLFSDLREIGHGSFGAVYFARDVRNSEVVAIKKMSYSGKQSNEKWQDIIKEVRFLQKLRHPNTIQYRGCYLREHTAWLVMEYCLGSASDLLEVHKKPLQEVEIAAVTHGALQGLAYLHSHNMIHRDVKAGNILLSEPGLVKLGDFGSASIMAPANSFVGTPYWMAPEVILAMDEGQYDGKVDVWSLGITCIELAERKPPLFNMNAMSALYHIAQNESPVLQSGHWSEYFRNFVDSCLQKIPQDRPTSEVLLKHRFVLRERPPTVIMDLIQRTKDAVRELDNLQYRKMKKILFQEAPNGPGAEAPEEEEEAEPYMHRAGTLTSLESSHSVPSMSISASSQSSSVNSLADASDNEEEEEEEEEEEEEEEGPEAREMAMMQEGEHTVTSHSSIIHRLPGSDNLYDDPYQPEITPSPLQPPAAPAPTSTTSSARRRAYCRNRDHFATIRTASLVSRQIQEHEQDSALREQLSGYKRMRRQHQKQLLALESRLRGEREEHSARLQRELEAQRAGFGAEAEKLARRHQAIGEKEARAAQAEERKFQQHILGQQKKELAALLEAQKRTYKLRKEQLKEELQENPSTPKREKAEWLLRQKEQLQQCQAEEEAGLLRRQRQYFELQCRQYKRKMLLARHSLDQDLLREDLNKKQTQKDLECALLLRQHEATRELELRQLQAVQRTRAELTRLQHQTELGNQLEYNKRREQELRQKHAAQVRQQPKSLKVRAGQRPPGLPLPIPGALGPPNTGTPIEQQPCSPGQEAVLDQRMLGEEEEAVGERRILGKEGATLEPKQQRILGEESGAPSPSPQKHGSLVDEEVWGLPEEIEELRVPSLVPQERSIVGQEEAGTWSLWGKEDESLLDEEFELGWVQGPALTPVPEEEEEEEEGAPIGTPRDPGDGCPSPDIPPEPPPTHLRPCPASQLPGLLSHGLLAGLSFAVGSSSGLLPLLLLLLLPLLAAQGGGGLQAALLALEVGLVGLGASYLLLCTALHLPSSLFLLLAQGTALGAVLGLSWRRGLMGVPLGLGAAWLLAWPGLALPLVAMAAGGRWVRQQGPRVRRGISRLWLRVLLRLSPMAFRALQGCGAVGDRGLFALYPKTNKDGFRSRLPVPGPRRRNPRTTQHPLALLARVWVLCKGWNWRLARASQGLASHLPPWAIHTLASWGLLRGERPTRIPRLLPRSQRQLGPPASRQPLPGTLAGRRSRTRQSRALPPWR

[16] = molecular target: NT-3 growth factor receptor (Homo sapiens, UniProt Q16288); experiment: Inhibition of TrkC (unknown origin) after 60 mins by TR-FRET assay
Sequence of NT-3 growth factor receptor (Q16288 whole entry): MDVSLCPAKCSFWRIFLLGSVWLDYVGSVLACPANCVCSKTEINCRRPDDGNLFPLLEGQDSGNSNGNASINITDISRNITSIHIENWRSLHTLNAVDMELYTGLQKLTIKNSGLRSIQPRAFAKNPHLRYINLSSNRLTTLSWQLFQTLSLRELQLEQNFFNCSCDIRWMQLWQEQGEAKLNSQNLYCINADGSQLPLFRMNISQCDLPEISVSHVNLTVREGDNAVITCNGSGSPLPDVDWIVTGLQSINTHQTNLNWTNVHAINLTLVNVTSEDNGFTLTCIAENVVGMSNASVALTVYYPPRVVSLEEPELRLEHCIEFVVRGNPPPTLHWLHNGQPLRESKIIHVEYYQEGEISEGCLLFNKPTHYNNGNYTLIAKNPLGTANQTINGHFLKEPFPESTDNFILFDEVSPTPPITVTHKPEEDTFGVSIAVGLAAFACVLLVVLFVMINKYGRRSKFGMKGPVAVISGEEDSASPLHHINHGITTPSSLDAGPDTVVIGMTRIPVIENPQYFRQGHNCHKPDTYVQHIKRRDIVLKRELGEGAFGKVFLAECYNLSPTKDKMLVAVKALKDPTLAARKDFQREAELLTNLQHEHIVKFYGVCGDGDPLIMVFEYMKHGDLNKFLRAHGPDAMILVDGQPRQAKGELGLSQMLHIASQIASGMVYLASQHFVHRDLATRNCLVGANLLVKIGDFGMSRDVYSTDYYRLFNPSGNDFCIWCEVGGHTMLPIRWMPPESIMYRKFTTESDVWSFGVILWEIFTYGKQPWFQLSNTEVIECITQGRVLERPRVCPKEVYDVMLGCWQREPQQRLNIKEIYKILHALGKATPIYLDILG

[17] = molecular target: Wee1-like protein kinase (Homo sapiens, UniProt P30291); experiment: Inhibition of Wee1 (unknown origin) after 60 mins by TR-FRET assay
[18] = Unbound clearance in rat microsomes; format: ADME, Microsome
[19] = molecular target: Vascular endothelial growth factor receptor 2 (Homo sapiens, UniProt P35968); experiment: Inhibition of KDR (unknown origin) after 60 mins by TR-FRET assay
Sequence of Vascular endothelial growth factor receptor 2 (P35968 whole entry): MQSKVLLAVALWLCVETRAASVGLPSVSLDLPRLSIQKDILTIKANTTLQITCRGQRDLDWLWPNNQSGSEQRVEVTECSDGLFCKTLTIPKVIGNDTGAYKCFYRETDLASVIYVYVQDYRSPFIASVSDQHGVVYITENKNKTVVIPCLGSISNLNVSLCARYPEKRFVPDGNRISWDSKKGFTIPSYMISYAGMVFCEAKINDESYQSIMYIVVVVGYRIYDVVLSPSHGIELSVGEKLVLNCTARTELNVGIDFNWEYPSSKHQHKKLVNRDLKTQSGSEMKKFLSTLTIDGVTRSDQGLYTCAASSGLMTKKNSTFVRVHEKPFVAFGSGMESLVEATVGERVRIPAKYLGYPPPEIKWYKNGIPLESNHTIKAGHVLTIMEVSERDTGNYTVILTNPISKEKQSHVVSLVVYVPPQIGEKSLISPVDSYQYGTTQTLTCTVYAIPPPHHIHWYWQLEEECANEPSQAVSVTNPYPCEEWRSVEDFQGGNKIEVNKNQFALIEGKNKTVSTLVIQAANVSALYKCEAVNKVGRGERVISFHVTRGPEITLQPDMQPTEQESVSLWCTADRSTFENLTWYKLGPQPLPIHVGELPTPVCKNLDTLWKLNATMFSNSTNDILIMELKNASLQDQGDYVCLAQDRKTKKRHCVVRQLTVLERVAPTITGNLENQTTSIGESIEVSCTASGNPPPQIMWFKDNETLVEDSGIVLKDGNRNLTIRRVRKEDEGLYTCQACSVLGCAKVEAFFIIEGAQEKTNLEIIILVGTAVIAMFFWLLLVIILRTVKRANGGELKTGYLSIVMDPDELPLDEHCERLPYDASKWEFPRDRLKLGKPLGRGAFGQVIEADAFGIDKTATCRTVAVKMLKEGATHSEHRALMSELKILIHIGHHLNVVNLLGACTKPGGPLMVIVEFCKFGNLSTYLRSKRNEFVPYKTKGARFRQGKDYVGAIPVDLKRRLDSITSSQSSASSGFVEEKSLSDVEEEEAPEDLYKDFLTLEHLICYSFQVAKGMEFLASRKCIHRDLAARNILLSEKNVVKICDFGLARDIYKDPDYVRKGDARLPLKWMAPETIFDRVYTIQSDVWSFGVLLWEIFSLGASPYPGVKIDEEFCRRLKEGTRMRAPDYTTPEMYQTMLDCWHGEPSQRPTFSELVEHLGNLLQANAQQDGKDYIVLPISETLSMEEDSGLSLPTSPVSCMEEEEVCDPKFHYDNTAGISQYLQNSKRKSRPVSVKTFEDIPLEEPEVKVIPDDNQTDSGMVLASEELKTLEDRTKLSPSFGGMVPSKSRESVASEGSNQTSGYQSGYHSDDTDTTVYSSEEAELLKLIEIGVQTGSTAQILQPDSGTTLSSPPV

[20] = molecular target: Proto-oncogene tyrosine-protein kinase receptor Ret (Homo sapiens, UniProt P07949); experiment: Inhibition of RET (unknown origin) after 60 mins by TR-FRET assay

pIC50 [1]	pIC50 [2]	pIC50 [3]	pIC50 [4]	pIC50 [5]	pIC50 [6]	pIC50 [7]	pIC50 [8]	pIC50 [9]	pIC50 [10]	pIC50 [11]	pIC50 [12]	pIC50 [13]	pIC50 [14]	pIC50 [15]	pIC50 [16]	pIC50 [17]	CL free [18] [mL/min/kg]	pIC50 [19]	pIC50 [20]	Compound
< 5.00	< 5.00	< 5.00	< 5.00	5.12	< 5.00	< 5.00	5.00	< 5.00	5.38	5.17	< 5.00	< 5.00	< 5.00	< 5.00	< 5.00	< 5.00	–	–	–	Cc1n[nH]c2cc(Nc3nc(NC4CC4)c4occc4n3)ccc12
< 5.00	< 5.00	< 5.00	< 5.00	–	5.19	5.31	5.09	< 5.00	–	5.19	< 5.00	< 5.00	5.06	< 5.00	< 5.00	< 5.00	255	< 5.00	5.46	FC(F)(F)CNc1nc(Nc2ccc3cn[nH]c3c2)nc2ccoc12
< 5.00	< 5.00	5.30	< 5.00	< 5.00	< 5.00	< 5.00	< 5.00	< 5.00	6.63	< 5.00	5.25	< 5.00	5.24	5.07	5.11	5.01	< 81.7	5.47	6.42	CC1(C)OCC(=O)Nc2cc(Nc3nc(NCC(F)(F)F)c4occc4n3)ccc21
< 5.00	< 5.00	< 5.00	< 5.00	< 5.00	< 5.00	< 5.00	< 5.00	< 5.00	5.63	< 5.00	< 5.00	< 5.00	< 5.00	< 5.00	< 5.00	< 5.00	1600	< 5.00	5.82	FC(F)(F)CNc1nc(Nc2ccc(N3CCOCC3)c(Cl)c2)nc2ccoc12
